In ChEMBL document CHEMBL2384972, “Tricyclic Pyrimidines As Inhibitors of DYRK1A/DYRK1B As Potential Treatment for Down's Syndrome or Alzheimer's Disease” (ACS Med Chem Lett, 2013):

How the values were obtained:
[1] = target: Dual specificity tyrosine-phosphorylation-regulated kinase 1B (Homo sapiens, UniProt Q9Y463); assay: Inhibition of recombinant DYRK1B (unknown origin) after 120 mins in presence of [33P]-ATP
[2] = target: Dual specificity tyrosine-phosphorylation-regulated kinase 1A (Homo sapiens, UniProt Q13627); assay: Inhibition of recombinant DYRK1A (unknown origin) after 120 mins in presence of [33P]-ATP

Dual specificity tyrosine-phosphorylation-regulated kinase 1B, sequence (Q9Y463 whole entry): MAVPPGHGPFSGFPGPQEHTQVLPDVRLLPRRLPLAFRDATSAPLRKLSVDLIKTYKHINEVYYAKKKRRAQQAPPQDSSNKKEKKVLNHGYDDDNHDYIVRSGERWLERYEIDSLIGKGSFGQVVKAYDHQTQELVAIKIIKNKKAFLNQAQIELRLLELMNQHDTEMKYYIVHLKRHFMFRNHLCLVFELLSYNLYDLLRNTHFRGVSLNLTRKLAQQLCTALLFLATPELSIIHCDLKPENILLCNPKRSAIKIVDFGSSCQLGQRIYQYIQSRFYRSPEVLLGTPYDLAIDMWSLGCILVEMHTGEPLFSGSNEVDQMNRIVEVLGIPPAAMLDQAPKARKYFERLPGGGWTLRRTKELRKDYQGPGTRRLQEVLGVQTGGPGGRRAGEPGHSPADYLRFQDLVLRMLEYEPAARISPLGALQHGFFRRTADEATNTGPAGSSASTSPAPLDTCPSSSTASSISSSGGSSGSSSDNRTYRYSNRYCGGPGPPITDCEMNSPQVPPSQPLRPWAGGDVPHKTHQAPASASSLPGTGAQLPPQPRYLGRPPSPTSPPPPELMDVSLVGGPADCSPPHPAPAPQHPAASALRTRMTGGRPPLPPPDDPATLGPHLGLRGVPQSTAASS

Structure (SMILES)	IC50 [1] [nM]	IC50 [2] [nM]
COC(=N)c1nc2ccc3ncnc(Nc4ccc(Br)cc4F)c3c2s1	0.24	0.16
COC(=N)c1nc2ccc3ncnc(Nc4ccc(F)cc4Br)c3c2s1	6.55	3.6
